The subject of this assay is clot lysis (fibrinolysis) in diluted human citrated plasma, tPA-induced. The assay can be described thus: Plasma-based clot lysis assay (5%). The format is biochemical. As to conditions: human citrated platelet-poor plasma 5%, fibrinogen 3 μM, CaCl2 10 mM, tPA 0.2 nM, 37° C., OD at 405 nm. The gist of the method: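 Compounds added to 5% platelet-poor citrated human plasma with 3 μM fibrinogen in 20 mM HEPES, 150 mM NaCl, 0.01% Brij, pH 7. Clotting and lysis started with 10 mM CaCl2 and 0.2 nM tPA at 37° C. IC50 derived by comparing time courses with a blank control reaction.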

The text below walks through data of patent publication US10118930B2, “Piperidinylpyrazolopyrimidinones and their use” (BAYER PHARMA AKTIENGESELLSCHAFT, priority 2015, dated 2018).

Where a name gives a salt, the structure may show the parent alone.

For orientation: IC50 means the concentration that inhibits the measured activity by half. In the case of `Cc1nn2c(C3CCNCC3)cc(=O)[nH]c2c1C(=O)NCC(C)C` [Example 418, N-isobutyl-2-methyl-5-oxo-7-(piperidin-4-yl)-4,5-dihydro-pyrazolo[1,5-a] pyrimidine-3-carboxamide hydrochloride], the IC50 stood at 31 nM.
Under `Cc1nn2c(C3CCNCC3)cc(=O)[nH]c2c1C(=O)N1CCCC(C)(C)C1` [Example 420, 3-[(3,3-dimethyl-piperidin-1-yl)carbonyl]-2-methyl-7-(piperidin-4-yl) pyrazolo[1,5-a] pyrimidin-5(4H)-one hydrochloride] stands 47 nM; under `Cc1nn2c(C3CCNCC3)cc(=O)[nH]c2c1C(=O)N1CC(C)CC(C)C1` (centres unmarked) [Example 421, 3-[(3,5-dimethyl-piperidin-1-yl)carbonyl]-2-methyl-7-(piperidin-4-yl) pyrazolo[1,5-a] pyrimidin-5(4H)-one hydrochloride], 30 nM.
`Cc1nn2c(C3CCNCC3)cc(=O)[nH]c2c1C(=O)NC1CCC1` [Example 422, N-cyclobutyl-2-methyl-5-oxo-7-(piperidin-4-yl)-4,5-dihydro-pyrazolo[1,5-a] pyrimidine-3-carboxamide hydrochloride] showed an IC50 of 23 nM.
Under `CCN(Cc1ccccc1)C(=O)c1c(C)nn2c(C3CCNCC3)cc(=O)[nH]c12` [Example 423, N-benzyl-N-ethyl-2-methyl-5-oxo-7-(piperidin-4-yl)-4,5-dihydro-pyrazolo[1,5-a] pyrimidine-3-carboxamide hydrochloride] stands 33 nM; under `CCN(C)C(=O)c1c(C)nn2c(C3CCNCC3)cc(=O)[nH]c12` [Example 424, N-ethyl-N,2-dimethyl-5-oxo-7-(piperidin-4-yl)-4,5-dihydro-pyrazolo[1,5-a] pyrimidine-3-carboxamide hydrochloride], 78 nM; under `Cc1nn2c(C3CCNCC3)cc(=O)[nH]c2c1C(=O)N(C)CC1CC1` [Example 425, N-(cyclopropyl-methyl)-N,2-dimethyl-5-oxo-7-(piperidin-4-yl)-4,5-dihydro-pyrazolo[1,5-a] pyrimidine-3-carboxamide hydrochloride], 37 nM.
The compound `Cc1nn2c(C3CCNCC3)cc(=O)[nH]c2c1C(=O)N1CCOC(C)(C)C1` [Example 426, 3-[(2,2-dimethyl-morpholin-4-yl)carbonyl]-2-methyl-7-(piperidin-4-yl) pyrazolo[1,5-a] pyrimidin-5(4H)-one hydrochloride] yielded an IC50 of 56 nM.
The figure for `Cc1nn2c(C3CCNCC3)cc(=O)[nH]c2c1C(=O)N(C)Cc1ccccn1` [Example 428, N,2-dimethyl-5-oxo-7-(piperidin-4-yl)-N-(pyridin-2-ylmethyl)-4,5-dihydro-pyrazolo[1,5-a] pyrimidine-3-carboxamide hydrochloride] is 29 nM.
The compound `Cc1nn2c(C3CCNCC3)cc(=O)[nH]c2c1C(=O)N1CCC(F)(F)C1` [Example 429, 3-[(3,3-difluoro-pyrrolidin-1-yl)carbonyl]-2-methyl-7-(piperidin-4-yl) pyrazolo[1,5-a] pyrimidin-5(4H)-one hydrochloride] yielded an IC50 of 30 nM. The IC50 values of the last two compounds are within 1.5-fold of each other.
Turning to `Cc1nn2c(C3CCNCC3)cc(=O)[nH]c2c1C(=O)N1CCNC(=O)CC1` [Example 430, 2-methyl-3-[(5-oxo-1,4-diazepan-1-yl)carbonyl]-7-(piperidin-4-yl) pyrazolo[1,5-a] pyrimidin-5(4H)-one hydrochloride], the IC50 worked out at 120 nM.
Under `Cc1ccccc1N(C)C(=O)c1c(C)nn2c(C3CCNCC3)cc(=O)[nH]c12` [Example 431, N,2-dimethyl-N-(2-methyl-phenyl)-5-oxo-7-(piperidin-4-yl)-4,5-dihydro-pyrazolo[1,5-a] pyrimidine-3-carboxamide hydrochloride] stands 28 nM.
`CCCN(CC)C(=O)c1c(C)nn2c(C3CCNCC3)cc(=O)[nH]c12` [Example 432, N-ethyl-2-methyl-5-oxo-7-(piperidin-4-yl)-N-propyl-4,5-dihydro-pyrazolo[1,5-a] pyrimidine-3-carboxamide hydrochloride] came in with a 50% inhibitory concentration (IC50) of 120 nM.
Under `Cc1nn2c(C3CCNCC3)cc(=O)[nH]c2c1C(=O)N1CCC(C)(C)CC1` [Example 434, 3-[(4,4-dimethyl-piperidin-1-yl)carbonyl]-2-methyl-7-(piperidin-4-yl) pyrazolo[1,5-a] pyrimidin-5(4H)-one hydrochloride] stands 32 nM; under `Cc1nn2c(C3CCNCC3)cc(=O)[nH]c2c1C(=O)N(C)Cc1ccccc1` [Example 436, N-benzyl-N,2-dimethyl-5-oxo-7-(piperidin-4-yl)-4,5-dihydro-pyrazolo[1,5-a] pyrimidine-3-carboxamide hydrochloride], 39 nM; under `Cc1nn2c(C3CCNCC3)cc(=O)[nH]c2c1-c1nc(-c2ccccc2F)no1` [Example 438, 3-[3-(2-fluorophenyl)-1,2,4-oxadiazol-5-yl]-2-methyl-7-(piperidin-4-yl)pyrazolo[1,5-a]pyrimidin-5(4H)-one hydrochloride], 12 nM.
The figure for `Cc1nn2c(C3CCNCC3)cc(=O)[nH]c2c1-c1nc(Cc2ccccc2Cl)no1` [Example 439, 3-[3-(2-chlorobenzyl)-1,2,4-oxadiazol-5-yl]-2-methyl-7-(piperidin-4-yl)pyrazolo[1,5-a]pyrimidin-5(4H)-one hydrochloride] is 26 nM; for `Cc1ccccc1-c1noc(-c2c(C)nn3c(C4CCNCC4)cc(=O)[nH]c23)n1` [Example 440, 2-methyl-3-[3-(2-methylphenyl)-1,2,4-oxadiazol-5-yl]-7-(piperidin-4-yl)pyrazolo[1,5-a]pyrimidin-5(4H)-one hydrochloride] it is 23 nM.
Under `Cc1nn2c(C3CCNCC3)cc(=O)[nH]c2c1-c1nc(-c2cccc(Cl)c2)no1` [Example 441, 3-[3-(3-chlorophenyl)-1,2,4-oxadiazol-5-yl]-2-methyl-7-(piperidin-4-yl)pyrazolo[1,5-a]pyrimidin-5(4H)-one hydrochloride] stands 29 nM.
In turn, `Cc1nn2c(C3CCNCC3)cc(=O)[nH]c2c1-c1nc(-c2ccc(C(F)(F)F)cc2)no1` [Example 442, 2-methyl-7-(piperidin-4-yl)-3-{3-[4-(trifluoromethyl)phenyl]-1,2,4-oxadiazol-5-yl}pyrazolo[1,5-a]pyrimidin-5(4H)-one hydrochloride] came in with an IC50 of 27 nM.
Under `COc1c(F)cc(Cc2nnc(-c3cnn4c(C5CCNCC5)cc(=O)[nH]c34)o2)cc1F` [Example 444, 3-[5-(3,5-difluoro-4-methoxybenzyl)-1,3,4-oxadiazol-2-yl]-7-(piperidin-4-yl)pyrazolo[1,5-a]pyrimidin-5(4H)-one hydrochloride] stands 17 nM; under `Cc1nn2c(C3CCNCC3)cc(=O)[nH]c2c1-c1nnc(-c2ccccc2F)o1` [Example 445, 3-[5-(2-fluorophenyl)-1,3,4-oxadiazol-2-yl]-2-methyl-7-(piperidin-4-yl)pyrazolo[1,5-a]pyrimidin-5(4H)-one hydrochloride], 56 nM.
The figure for `Cc1nn2c(C3CCNCC3)cc(=O)[nH]c2c1-c1nc(Cc2ccc(O)cc2)no1` [Example 446, 3-[3-(4-hydroxybenzyl)-1,2,4-oxadiazol-5-yl]-2-methyl-7-(piperidin-4-yl)pyrazolo[1,5-a]pyrimidin-5(4H)-one hydrochloride] is 10 nM.
